According to PubChem BioAssay (NCI):
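Where inhibition never reached the appropriate level, the endpoint shown equals the highest concentration tested. Otherwise, values were interpolated linearly from a five-concentration, 48-hour dose response in 96-well plates. TGI: concentration producing complete growth inhibition.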

Assays:
Assay in all cases: NCI-60 cell line screen, 48 h
[1] = test system: UACC-62 melanoma
[2] = test system: HCT-15 colon
[3] = test system: T-47D breast
[4] = test system: MALME-3M melanoma
[5] = test system: M14 melanoma
[6] = test system: HT29 colon
[7] = test system: HS 578T breast
[8] = test system: SK-OV-3 ovarian
[9] = test system: UACC-257 melanoma
[10] = test system: NCI-H522 lung
[11] = test system: MDA-MB-435
[12] = test system: EKVX NSCLC
[13] = test system: BT-549 breast
[14] = test system: MOLT-4 leukemia
[15] = test system: NCI-H460 lung
[16] = test system: KM12 colon
[17] = test system: OVCAR-3 ovarian
[18] = test system: HL-60(TB) leukemia
[19] = test system: RXF 393 renal

Row | Compound | TGI [1] [µM] | TGI [2] [µM] | TGI [3] [µM] | TGI [4] [µM] | TGI [5] [µM] | TGI [6] [µM] | TGI [7] [µM] | TGI [8] [µM] | TGI [9] [µM] | TGI [10] [µM] | TGI [11] [µM] | TGI [12] [µM] | TGI [13] [µM] | TGI [14] [µM] | TGI [15] [µM] | TGI [16] [µM] | TGI [17] [µM] | TGI [18] [µM] | TGI [19] [µM]
1 | CCCCn1c(C)c(C(=O)OCC)c2cc(OCc3ccc(C(=O)Nn4c(C)ccc4C)cc3)c(Br)cc21 | > 100 | > 100 | > 100 | > 100 | > 100 | > 100 | > 100 | > 100 | > 100 | > 100 | > 100 | > 100 | > 100 | > 100 | > 100 | > 100 | > 100 | > 100 | –
2 | Nc1nc(Cl)cc(NCC2(CO)COC2)n1 | > 100 | > 100 | > 100 | > 100 | – | > 100 | > 100 | > 100 | > 100 | > 100 | > 100 | > 100 | > 100 | – | > 100 | > 100 | > 100 | > 100 | > 100
3 | O=C1NNC(=O)C2C3c4ccccc4C(c4ccccc43)C12 (stereo unspecified) | > 100 | > 100 | > 100 | > 100 | > 100 | > 100 | > 100 | > 100 | > 100 | – | – | > 100 | > 100 | > 100 | > 100 | > 100 | > 100 | > 100 | > 100
4 | Oc1cc(O)c2c(c1)O[C@H](c1cc(O)c(O)c(O)c1)[C@H](O)C2 | – | > 100 | 80.7 | > 100 | > 100 | – | > 100 | 56.7 | > 100 | 38.1 | 25.4 | – | 56.6 | 32.9 | 38.5 | – | > 100 | 42.2 | 29.6
5 | O=C(CC(=O)n1nc(-c2ccccc2)c(N=Nc2ccc(Cl)cc2)c1-c1ccccc1)Nc1cccc(Cl)c1 | > 100 | > 100 | > 100 | > 100 | > 100 | > 100 | > 100 | – | > 100 | – | – | > 100 | > 100 | > 100 | > 100 | > 100 | – | > 100 | > 100
6 | S=C(/N=c1/sc(Nc2ccccc2)nc2sc3c(c12)CCCC3)Nc1ccccc1 | > 62.5 | > 62.5 | – | > 62.5 | – | > 62.5 | > 62.5 | > 62.5 | > 62.5 | > 62.5 | > 62.5 | > 62.5 | > 62.5 | > 62.5 | > 62.5 | > 62.5 | > 62.5 | > 62.5 | > 62.5
7 | C/C(=N\NC(=S)N1CC2CCC(CC2)C1)c1ccncn1 | 1.04 | – | 3.48 | 1.42 | 2.36 | 5.5 | > 24.4 | 1.6 | 2.91 | 2.32 | 5.9 | 4.21 | 3.54 | – | 1.65 | 3.16 | – | 1.44 | 2.25
8 | O=C1C(Br)=CC2(C=C1Br)CCN=c1c(O)c3c(c(O)c12)=NC=N3 | 24.2 | 29.1 | 33.7 | – | 30.6 | 29.2 | 71.5 | 48.2 | 28 | 28.1 | 23.4 | 32 | 33.3 | > 100 | 32.8 | 30.9 | 29.1 | 35 | 29.9
9 | Clc1ccc2c(NCCCCN=Cc3ccccc3)ccnc2c1 | – | 33.1 | 45.7 | 27.5 | 27.4 | 21.6 | 36.6 | 59.8 | 26 | 24.5 | 25.2 | 43.7 | 32.6 | 25.7 | 24.2 | 20.8 | 41.9 | – | 16.6
10 | CCOC(=O)NC(Nc1ccc(S(=O)(=O)Nc2ncccn2)cc1)(C(=O)OCC)C(F)(F)F (stereo unspecified) | > 100 | > 100 | > 100 | > 100 | > 100 | > 100 | > 100 | > 100 | > 100 | > 100 | > 100 | > 100 | > 100 | > 100 | > 100 | > 100 | > 100 | > 100 | –
11 | Cc1cc(O)c(/C=N/C(=S)NCCc2ccccc2)c(=O)o1 | – | > 100 | > 100 | – | > 100 | > 100 | – | > 100 | > 100 | – | > 100 | > 100 | > 100 | > 100 | > 100 | > 100 | > 100 | > 100 | –
12 | COC1(OC)C2(Cl)CCC1(Cl)C(OC(C)=O)C2 (stereo unspecified) | > 100 | > 100 | > 100 | > 100 | > 100 | > 100 | > 100 | > 100 | > 100 | > 100 | > 100 | > 100 | > 100 | > 100 | > 100 | > 100 | > 100 | – | > 100
13 | CCCCCCCCCCCCCCCCCc1cccc(OCOCCOC)c1CO | > 100 | > 100 | – | > 100 | > 100 | > 100 | > 100 | > 100 | > 100 | > 100 | > 100 | > 100 | > 100 | > 100 | > 100 | > 100 | > 100 | > 100 | > 100
14 | CC1=C2C3=C(C)C(=O)C(C)(C)CC[C@@]3(C)[C@]2(C)CCC(C)(C)C1=O | > 100 | > 100 | > 100 | > 100 | > 100 | > 100 | > 100 | > 100 | > 100 | > 100 | > 100 | > 100 | > 100 | > 100 | – | > 100 | > 100 | > 100 | > 100
